Measurements: patent publication US5192764A, “Pyrazinone N-oxide nucleosides and analogs thereof” (priority 1991, dated 1993)
pEC50, pIC50: −log10 of the molar value.

Experiments:
herpes simplex = settings: literature; comparable to 5-iodo-2'-deoxyuridine; cited from earlier work
vaccinia viruses = settings: literature; comparable to 5-iodo-2'-deoxyuridine; cited from earlier work
HSV-1 (KOS strain) [1] = assay: Plaque reduction method, anti-HSV-1 (KOS strain); assay type: cell-based; settings: for activity at 1 µM: Human alphaherpesvirus 1, 1 uM; for activity at 1 µM / activity at 5 µM / activity at 25 µM / activity at 100 µM: read-out: Plaque Forming Units, % of Control; for activity at 5 µM: Human alphaherpesvirus 1, 5 uM; for activity at 25 µM: Human alphaherpesvirus 1, 25 uM; for activity at 100 µM: Human alphaherpesvirus 1, 100 uM; for antiherpes activity (in words): data of Table 1
Procedure: Antiviral (HSV) activities of 1-(2'-Deoxy-B-D-ribofuranosyl)-2-pyrazinone-4-N-oxide (A in table 1) and the corresponding 1-(2'-Deoxy-B-D-ribofuranosyl)-5-methyl-2-pyrazinone-N-oxide and 1-(2,-Deoxy-B-D-ribofuranosyl)-5-ethyl-2-pyrazinone-4-N-oxide (respectively, B and C of table 1) were determined according to the procedure described in Gao, et al., Antimic. Agents Chem., 34, 808 (1990), using the plaque reduction method. Table 1 indicates the relative antiviral activities of the three derivatives against HSV-1 (KOS strain).

bacterial cells = settings: literature; cited from earlier work
leukemic L1210 cells = settings: literature; cited from earlier work
HSV-1 KOS (PFAr) = assay: Plaque Reduction Method against HSV-1 KOS phosphonoformate resistant strain; assay type: cell-based; settings: Human alphaherpesvirus 1, read-out: ID50
Procedure: (§1) Using the Plaque Reduction Method, activity against HSV-1 KOS Phosphono formate resistant (PFAr) and KOS 9-(2-Phosphonylmethoxyethyl)-adenine resistant (PMEAr) strains was assessed.

HSV-1 KOS (PMEAr) = assay: Plaque Reduction Method against HSV-1 KOS 9-(2-phosphonylmethoxyethyl)-adenine resistant strain; assay type: cell-based; settings: Human alphaherpesvirus 1, read-out: ID50
Procedure: as §1

leukemia L1210 cells = assay: Cytotoxicity against leukemia L1210 cells; assay type: cell-based; settings: up to a concentration of 2×10^-3
Procedure: (§2) Compounds B and C were tested for cytotoxicity against leukemia L1210 cells up to a concentration of 2×10^-3 according to the method described in Bobek and Bloch, J. Med. Chem., 20, 458, 1977. In addition, these compounds were tested for cytotoxicity against a human T-cell lymophoblast cell line (CEM) according to the method of Vazquez-Padua, et al., Cancer Comm., 2, 55-62 (1990) with the exception that the cell line was different, to assay the cells, the cells were counted with a cell counter and the cells were incubated for 4 days instead of for 3 days.

HSV-1 (KOS strain) [2] = assay: Virus Yield Method against HSV-1 (KOS strain); assay type: cell-based; settings: for IC90: Human alphaherpesvirus 1, read-out: ID90 (the source's name)
HSV-2 (333) = assay: Virus Yield method against HSV-2 (333); assay type: cell-based; settings: Human alphaherpesvirus 2, read-out: ID90 (the source's name)
EBV = assay: Anti-EBV activity, EBV DNA in high EBV producer cell line; assay type: cell-based; settings: EBV DNA in Hl subclone of P3HR-1 cells, EBV DNA probe BAMH IM
Procedure: In particular, when EBV DNA was assessed in a high EBV producer cell line (Hl, which is a subclone of P3HR-1 cells of Burkitt's lymphoma cell line), Compound C evidenced anti-EBV activity. The methodology employed in the EBV assay is similar to the method of Foster, et al., Jour. Biol. Chem., 266, 238, (1991), except that the EBV DNA was assessed with an EBV DNA probe BAMH IM.

thymidine phosphorylase = assay: Breakdown by human liver thymidine phosphorylase; assay type: biochemical; settings: enzyme from human liver
Text: Compound C was also examined against thymidine phosphorylase obtained from the human liver using standard methodology.

[3] = Cytotoxicity against human T-cell lymphoblast cell line (CEM); assay type: cell-based; settings: human; CEM cells, 4 days incubation; read-out: cytotoxicity ID50
Procedure: as §2

[4] = test system: human T-cell lymophoblast cell line (CEM); assay: as above; assay type: cell-based; settings: CEM cells, 4 days incubation
Procedure: as §2

Varicella Zoster (VZV) = assay: Anti-VZV activity (Virus Yield) in HLF human cell line; assay type: cell-based
Text: As tested, using the above-described methodology, luM of Compound C inhibited 90% of the Virus Yield.

## CCc1cn([C@H]2C[C@H](O)[C@@H](CO)O2)c(=O)[nH]c1=O [5-ethyl-2'-deoxyuridine]
Herpes simplex
  activity against herpes simplex: significant activity
Vaccinia viruses
  activity against vaccinia viruses: significant activity

## O=c1c[n+]([O-])ccn1[C@H]1C[C@H](O)[C@@H](CO)O1 [A, 1-(2'-Deoxy-B-D-ribofuranosyl)-2-pyrazinone-4-N-oxide]
HSV-1 (KOS strain) [1]
  activity at 1 µM: 100%
  activity at 5 µM: 100%
  activity at 25 µM: 100%
  activity at 100 µM: 100%
  antiherpes activity (in words): inactive
Bacterial cells
  antibacterial / antimicrobial activity: significantly more effective as an antimicrobial agent than the riboside
Leukemic L1210 cells
  activity against leukemic L1210 cells: essentially inactive

## Cc1cn([C@H]2C[C@H](O)[C@@H](CO)O2)c(=O)c[n+]1[O-] [Compound B, 1-(2'-Deoxy-B-D-ribofuranosyl)-5-methyl-2-pyrazinone-N-oxide]
HSV-1 (KOS strain) [1]
  activity at 1 µM: 100%
  activity at 5 µM: 39%
  activity at 25 µM: 0.91%
  activity at 100 µM: 0.09%
  antiherpes activity (in words): significant antiherpes activity
HSV-1 KOS (PFAr)
  pIC50: 5.85
Bacterial cells
  antibacterial / antimicrobial activity: only marginally active
HSV-1 KOS (PMEAr)
  pIC50: 6.22
Leukemia L1210 cells
  cytotoxicity: significant cytoxtoxicity
HSV-1 (KOS strain) [2]
  IC90: 1800 nM
Leukemic L1210 cells
  activity against leukemic L1210 cells: significantly more active
HSV-2 (333)
  IC90: 3000 nM

## CCc1cn([C@H]2C[C@H](O)[C@@H](CO)O2)c(=O)c[n+]1[O-] [Compound C, 1-(2-Deoxy-B-D-ribofuranosyl)-5-ethyl-2-pyrazinone-4-N-oxide]
HSV-1 (KOS strain) [1]
  activity at 1 µM: 100%
  activity at 5 µM: 55%
  activity at 25 µM: 4.5%
  activity at 100 µM: 0.3%
  antiherpes activity (in words): significant antiherpes activity
HSV-1 (KOS strain) [1]; Human alphaherpesvirus 1, plaque reduction
  pEC50: 5.22
HSV-1 KOS (PFAr)
  pIC50: 5.47
HSV-1 KOS (PMEAr)
  pIC50: 6.00
EBV
  anti-EBV activity: significant anti-EBV activity
Leukemia L1210 cells
  cytotoxicity: virtually no cytotoxicity
HSV-1 (KOS strain) [2]
  IC90: 2800 nM
Thymidine phosphorylase
  substrate of thymidine phosphorylase: substrate of the enzyme
Thymidine phosphorylase; compared with thymidine
  rate of breakdown by the enzyme relative to thymidine: much less than the rate or breakdown of thymidine
[3]
  CC50 at 96 h: > 400000 nM
[4]
  cytotoxicity relative to Compound B: significantly less toxic than Compound B
Varicella Zoster (VZV)
  activity against VZV (in words): significant activity
Varicella Zoster (VZV); luM
  inhibition of Virus Yield: 90%
HSV-2 (333)
  IC90: 2000 nM

## Nc1nc2c(ncn2COCCO)c(=O)[nH]1 [acyclovir, reference compound]
HSV-1 KOS (PFAr)
  pIC50: 5.21
HSV-1 (KOS strain) [2]
  ID90 of ACV relative to Compound C (fold higher): approximately 7 fold
  IC90: 14000 nM

## O=c1c[n+]([O-])ccn1[C@@H]1O[C@H](CO)[C@@H](O)[C@H]1O [riboside of 2-pyrazinone-4-N-oxide, reference compound]
Bacterial cells
  antibacterial / antimicrobial activity: antibacterial activity
